Reference: ChEMBL document CHEMBL1122718, “Benzylamines: synthesis and evaluation of antimycobacterial properties” (1984)

Each compound was assayed on Mycobacterium tuberculosis (assay: Minimum inhibitory concentration (MIC) against Mycobacterium tuberculosis H 37 Ra).
Assay type: functional

CCCCNCc1cccc(Cl)c1.Cl and CCCCCNCc1cccc(Cl)c1.Cl are within 1.5-fold of each other in MIC: 64 µg/mL for the first, 51.2 µg/mL for the second.

CNCc1ccc(Cl)c(C(F)(F)F)c1.Cl and CCNCc1ccc(Cl)c(C(F)(F)F)c1.Cl cannot be ordered by MIC: > 256 µg/mL for the first, > 256 µg/mL for the second.

Cl.NCc1ccc(Cl)c(C(F)(F)F)c1 and CCCNCc1ccc(Cl)c(C(F)(F)F)c1.Cl cannot be ordered by MIC: > 256 µg/mL for the first, > 256 µg/mL for the second.

CCCNCc1cccc(Br)c1.Cl and CCCCNCc1cccc(Br)c1.Cl are within 1.5-fold of each other in MIC: 51.2 µg/mL for the first, 38.4 µg/mL for the second.

CCCCNCc1ccc(Cl)c(Cl)c1.Cl and CCCNCc1ccc(Cl)c(Cl)c1.Cl cannot be ordered by MIC: > 256 µg/mL for the first, > 256 µg/mL for the second.

CCCCNCc1ccccc1Cl.Cl and CCCCNCc1ccccc1Br.Cl cannot be ordered by MIC: > 256 µg/mL for the first, > 256 µg/mL for the second.

CCNCc1ccc(Cl)c(Cl)c1.Cl and CNCc1ccc(Cl)c(Cl)c1.Cl cannot be ordered by MIC: > 256 µg/mL for the first, > 256 µg/mL for the second.

Compared with CNCc1cccc(I)c1.Cl, CCNCc1cccc(I)c1.Cl is higher in MIC: 154 µg/mL for the first, > 256 µg/mL for the second.

Compared with CNCc1cc(F)cc(Cl)c1.Cl, CCNCc1cc(F)cc(Cl)c1.Cl is 1.7-fold higher in MIC: 19.2 µg/mL for the first, 32 µg/mL for the second.

CCCNCc1ccc(Cl)cc1Cl.Cl and CCCCNCc1ccc(Cl)cc1Cl.Cl cannot be ordered by MIC: > 256 µg/mL for the first, > 256 µg/mL for the second.

CC(C)NCc1cccc(Cl)c1.Cl and CC(C)NCc1cccc(F)c1.Cl cannot be ordered by MIC: > 256 µg/mL for the first, > 256 µg/mL for the second.

Compared with CNCc1cccc(F)c1.Cl, CCNCc1cccc(F)c1.Cl is 2.7-fold higher in MIC: 19.2 µg/mL for the first, 51.2 µg/mL for the second.

Cl.NCc1cccc(C(F)(F)F)c1 and CNCc1cccc(C(F)(F)F)c1.Cl cannot be ordered by MIC: > 256 µg/mL for the first, > 256 µg/mL for the second.

Going from CCCNCc1cc(Cl)cc([N+](=O)[O-])c1.Cl to CCCCNCc1cc(Cl)cc([N+](=O)[O-])c1.Cl, the MIC rises from 102 µg/mL to 205 µg/mL (2-fold).

Going from Cl.NCc1cc(F)cc(Cl)c1 to Cl.NCc1cc(F)cc(F)c1, the MIC rises from 32 µg/mL to 57.6 µg/mL (1.8-fold).

CCNCc1ccc(OC)cc1.Cl and CCCNCc1ccc(OC)cc1.Cl cannot be ordered by MIC: > 256 µg/mL for the first, > 256 µg/mL for the second.

CNCc1ccc(OC)cc1.Cl and COc1ccc(CN)cc1.Cl cannot be ordered by MIC: > 256 µg/mL for the first, > 256 µg/mL for the second.

CC(C)NCc1cccc(C(F)(F)F)c1.Cl and CCNCc1cccc(C(F)(F)F)c1.Cl cannot be ordered by MIC: > 256 µg/mL for the first, > 256 µg/mL for the second.

CCNCc1ccc(Cl)cc1Cl.Cl and CCNCc1cc(Cl)ccc1Cl.Cl cannot be ordered by MIC: > 256 µg/mL for the first, > 256 µg/mL for the second.

CCCNCc1cccc([N+](=O)[O-])c1.Cl and CCCCNCc1cccc([N+](=O)[O-])c1.Cl cannot be ordered by MIC: > 256 µg/mL for the first, > 256 µg/mL for the second.

CNCc1cc(Cl)ccc1Cl.Cl and CNCc1ccc(Cl)cc1Cl.Cl cannot be ordered by MIC: > 256 µg/mL for the first, > 256 µg/mL for the second.

CNCc1cc(F)cc(F)c1.Cl and CCNCc1cc(F)cc(F)c1.Cl are within 1.5-fold of each other in MIC: 32 µg/mL for the first, 44.8 µg/mL for the second.

CCCCNCc1cccc(C(F)(F)F)c1.Cl and CCCCCNCc1cccc(C(F)(F)F)c1.Cl cannot be ordered by MIC: > 256 µg/mL for the first, > 256 µg/mL for the second.

CCCCNCc1cc(Cl)ccc1Cl.Cl and CCCNCc1cc(Cl)ccc1Cl.Cl cannot be ordered by MIC: > 256 µg/mL for the first, > 256 µg/mL for the second.

CCCCNCc1c(Cl)cccc1Cl.Cl and CCCNCc1c(Cl)cccc1Cl.Cl cannot be ordered by MIC: > 256 µg/mL for the first, > 256 µg/mL for the second.

Compared with CCNCc1cccc([N+](=O)[O-])c1.Cl, CNCc1cccc([N+](=O)[O-])c1.Cl is lower in MIC: > 256 µg/mL for the first, 256 µg/mL for the second.

First: Cl.NCc1cccc(Br)c1
Second: Cl.NCc1cccc(I)c1
The MIC of the first is 5.6-fold lower: 32 µg/mL for the first, 179 µg/mL for the second.

CCCCCCNCc1ccccc1.Cl and CCCCCCCNCc1ccccc1.Cl cannot be ordered by MIC: > 256 µg/mL for the first, > 256 µg/mL for the second.

Compared with CCCCNCc1ccccc1.Cl, CCCCCNCc1ccccc1.Cl is 3-fold higher in MIC: 51.2 µg/mL for the first, 154 µg/mL for the second.

Compared with CCNCc1ccccc1Br.Cl, CCNCc1ccccc1.Cl is lower in MIC: > 256 µg/mL for the first, 205 µg/mL for the second.

CCCNCc1ccc(C(F)(F)F)cc1.Cl and CCCCNCc1ccc(C(F)(F)F)cc1.Cl cannot be ordered by MIC: > 256 µg/mL for the first, > 256 µg/mL for the second.

Compared with CCCCCNCc1cc(Cl)cc(Cl)c1.Cl, CCCCNCc1cc(Cl)cc(Cl)c1.Cl is 2-fold lower in MIC: 128 µg/mL for the first, 64 µg/mL for the second.

CCCNCc1cccc(F)c1.Cl and CCCCNCc1cccc(F)c1.Cl are the same in MIC: 25.6 µg/mL for the first, 25.6 µg/mL for the second.

CNCc1ccc(C(F)(F)F)cc1.Cl and CCNCc1ccc(C(F)(F)F)cc1.Cl cannot be ordered by MIC: > 256 µg/mL for the first, > 256 µg/mL for the second.

Going from Cl.NCc1ccc(Cl)cc1Cl to Cl.NCc1cc(Cl)ccc1Cl, the MIC falls from > 256 µg/mL to 76.8 µg/mL.

CCNCc1cc(Cl)cc(Cl)c1.Cl and CCCNCc1cc(Cl)cc(Cl)c1.Cl are within 1.5-fold of each other in MIC: 17.9 µg/mL for the first, 20.4 µg/mL for the second.

Going from Cl.N#Cc1cccc(CN)c1 to CNCc1cccc(C#N)c1.Cl, the MIC falls from 128 µg/mL to 51.2 µg/mL (2.5-fold).

CCCCNCc1cc(F)cc(Cl)c1.Cl and CCCNCc1cc(F)cc(Cl)c1.Cl are within 1.5-fold of each other in MIC: 19.2 µg/mL for the first, 25.6 µg/mL for the second.

CCCCNCc1cccc(I)c1.Cl and CCCNCc1cccc(I)c1.Cl are within 1.5-fold of each other in MIC: 205 µg/mL for the first, 256 µg/mL for the second.

Going from CC(C)NCc1cccc(C#N)c1.Cl to CCNCc1cccc(C#N)c1.Cl, the MIC falls from > 256 µg/mL to 102 µg/mL.

CNCc1ccc(Cl)cc1.Cl and CNCc1ccc(Br)cc1.Cl cannot be ordered by MIC: > 256 µg/mL for the first, > 256 µg/mL for the second.

CCCCCNCc1cccc(C#N)c1.Cl and CCCCNCc1cccc(C#N)c1.Cl are within 1.5-fold of each other in MIC: 76.8 µg/mL for the first, 51.2 µg/mL for the second.

First: CNCc1ccccc1.Cl
Second: CCCNCc1ccccc1.Cl
The MIC of the first is 2-fold higher: 102 µg/mL for the first, 51.2 µg/mL for the second.

Going from CCCCCNCc1cccc([N+](=O)[O-])c1.Cl to CCCCCNCc1cccc(F)c1.Cl, the MIC falls from > 256 µg/mL to 51.2 µg/mL.

Cl.NCc1ccc(C(F)(F)F)cc1 and CCCNCc1cccc(C(F)(F)F)c1.Cl cannot be ordered by MIC: > 256 µg/mL for the first, > 256 µg/mL for the second.

First: Cl.NCc1cccc([N+](=O)[O-])c1
Second: CC(C)NCc1cccc([N+](=O)[O-])c1.Cl
The MIC of the first is lower: 179 µg/mL for the first, > 256 µg/mL for the second.

CCNCc1c(Cl)cccc1Cl.Cl and CNCc1c(Cl)cccc1Cl.Cl cannot be ordered by MIC: > 256 µg/mL for the first, > 256 µg/mL for the second.

CCCCNCc1ccc(Br)cc1.Cl and CCCCNCc1ccc(Cl)cc1.Cl cannot be ordered by MIC: > 256 µg/mL for the first, > 256 µg/mL for the second.

First: CCCNCc1cccc(C#N)c1.Cl
Second: CCCNCc1cccc(Cl)c1.Cl
The MIC of the first is 4.3-fold higher: 76.8 µg/mL for the first, 17.9 µg/mL for the second.

Cl.NCc1ccccc1 and Cl.NCc1cccc(F)c1 are within 1.5-fold of each other in MIC: 76.8 µg/mL for the first, 51.2 µg/mL for the second.

First: CNCc1ccccc1Cl.Cl
Second: CNCc1cccc(Br)c1.Cl
The MIC of the first is higher: > 256 µg/mL for the first, 19.2 µg/mL for the second.

Cl.NCc1c(Cl)cccc1Cl and Cl.NCc1ccc(Cl)c(Cl)c1 cannot be ordered by MIC: > 256 µg/mL for the first, > 256 µg/mL for the second.

CNCc1cc(Cl)cc([N+](=O)[O-])c1.Cl and CCNCc1cc(Cl)cc([N+](=O)[O-])c1.Cl are within 1.5-fold of each other in MIC: 128 µg/mL for the first, 102 µg/mL for the second.

Compared with CCCCNCc1ccc(Cl)c(C(F)(F)F)c1.Cl, CCCCNCc1cc(F)cc(F)c1.Cl is lower in MIC: > 256 µg/mL for the first, 6.4 µg/mL for the second.

Cl.NCc1cc(Cl)cc(Cl)c1 and Cl.NCc1cccc(Cl)c1 are within 1.5-fold of each other in MIC: 20.4 µg/mL for the first, 17.9 µg/mL for the second.

Going from CCCNCc1cc(F)cc(F)c1.Cl to CCCCCNCc1cc(F)cc(F)c1.Cl, the MIC rises from 19.2 µg/mL to 32 µg/mL (1.7-fold).

First: CCCCCCCNCc1cc(Cl)cc(Cl)c1.Cl
Second: CCCCCCCCNCc1ccccc1.Cl [BENZYL(OCTYL)AMINE HYDROCHLORIDE]
The MIC of the first is lower: 154 µg/mL for the first, > 256 µg/mL for the second.

Compared with CCNCc1cccc(Br)c1.Cl, CCNCc1cccc(Cl)c1.Cl is 2.5-fold lower in MIC: 64 µg/mL for the first, 25.6 µg/mL for the second.

The compounds below were run on Mycobacterium lufu (assay: Minimum inhibitory concentration (MIC) of compound against Mycobacterium lufu L 209).
Assay type: functional

CCCCNCc1cc(F)cc(F)c1.Cl gave an MIC of 8 µg/mL.

What follows are compounds tested on Mycobacterium tuberculosis (assay: Minimum inhibitory concentration (MIC) of compound against Mycobacterium tuberculosis H 37 Rv).
Assay type: functional

With CCCCNCc1cc(F)cc(F)c1.Cl the MIC was 4 µg/mL.

Each compound was assayed on Mycobacterium marinum (assay: Minimum inhibitory concentration (MIC) of compound against Mycobacterium marinum SN 1254).
Assay type: functional

With CCCCNCc1cc(F)cc(F)c1.Cl the MIC was 6 µg/mL.

What follows are compounds tested on Mycolicibacterium smegmatis (assay: Minimum inhibitory concentration (MIC) of compound against Mycobacterium smegmatis ATCC 607).
Assay type: functional

With CCCCNCc1cc(F)cc(F)c1.Cl the MIC was 32 µg/mL.

Each compound was assayed on Mycobacterium avium (assay: Minimum inhibitory concentration (MIC) of compound against Mycobacterium avium SN 304).
Assay type: functional

CCCCNCc1cc(F)cc(F)c1.Cl gave an MIC of 3 µg/mL.

What follows are compounds tested on Mycobacterium tuberculosis (assay: Compound was evaluated for the minimum inhibitory concentration (MIC) against Mycobacterium tuberculosis H 37 Rv).
Assay type: functional

Work on CCCCNCc1cccc(F)c1.Cl yielded an MIC of 30 µg/mL.
